Data as given in patent US7626044B2, “Triptolide derivatives and their uses” (priority 2002, dated 2009).
≈ marks a conversion by molar mass, not a printed value. Where “and” joins values, the source holds several entries; their conditions need not be identical. Equal entries are not always repeated.

Experiments:
[1] = test system: BEL-7402 (human hepatic carcinoma cell); assay: Tumor cell proliferation, BEL-7402; format: cell-based; conditions: read-out: Inhibitory effect on tumor cell proliferation IC50
[2] = test system: DNFB-induced mouse DTH response; assay: DNFB-induced mouse delayed type hypersensitivity response (DTH); format: in vivo
Description: Female Balb/c mice (age of 6-8 wk) were randomly divided into groups and immunized with 20 μl 0.5% DNFB solution in absolute acetone-olive oil (4:1) on each hind foot on day 0 and 1;
7-9 days after the initial immunization, mice were boosted with 10 μl 0.4% DNFB on both sides of the left ear, whereas the right ear was treated with vehicle alone;
Compounds were administered intraperitoneally (i.p.) or orally (p.o.) to the mice 1 h before DNFB booster immunization and 12 h later.
Ear swelling and other indexes were assessed 24-48 h after booster immunization.
Note: Female ICR mice (age of 6-8 wk) were immunized with 0.7% DNFB solution and boosted with 0.6% DNFB solution.

[3] = test system: splenocytes (C57BL/6 responder, Balb/c stimulator); assay: MLR response of C57BL/6 against Balb/c; format: cell-based, mouse
Description: C57BL/6 and Balb/c mice were sacrificed by cervical dislocation, and spleens were collected under sterile conditions then teased through a nylon mesh. Erythrocytes were lysed. Cells were washed and resuspended at 6×10^6/ml in RPMI-1640 media with 10% FBS.
Splenocytes from responder (C57BL/6) were mixed with stimulator (Balb/c), which was pretreated with ^60Co Gamma Ray irradiation (3000 rads).
Stimulator and responder cells were cultured in a 200 μl volume in 96-well plate in the presence of drugs or medium, at 37° C., 5% CO2 in a humidified incubator, for 3, 4, and 5 days, respectively. In the last 8 h of incubation, cells were treated with 25 μl (3.8×10^10 Bq) of [^3H]Thymidine.
At the end of incubation, pulsed cells were harvested on a glass filter using a cell harvester ([…]96®, TOMTEC) and allowed to dry. Incorporation of radioactive thymidine was determined by using liquid Scintillation and Luminescence Counters (MicroBeta Trilux®, PerkinElmer).

lymphocyte = assay: MTT cytotoxic assay; format: cell-based, mouse; conditions: mouse spleen cells, 48 hours, MTT
Description: Mice were sacrificed by cervical dislocation, and spleens were collected under sterile conditions then teased through a nylon mesh. Erythrocytes were lysed. Cells were washed and resuspended at 5×10^6/ml in RPMI-1640 media supplemented with 10% FBS.
For one 96 well plate assay, 90 μl of cells, 45 μl of sample and 45 μl of RPMI-1640 media with 10% FBS were added into each well with the final volume 180 μl. The negative control wells (containing 90 μl of RPMI-1640 media with 10% FBS and 90 pt of cells), blank control (180 μl of RPMI-1640 media with 10% FBS) were also performed. Incubate plate for 48 hours at 37° C., 5% CO2 in a humidified incubator. 18 μl of MTT solution (5 mg/ml) was added for 6-7 h.
90 μl of MTT lysis solution was added to each well followed by a further incubation at 37° C. for 6-7 h. And the absorbance was measured at 570 nm using a plate reader.

[4] = test system: MCF-7 (human breast cancer cell); assay: Tumor cell proliferation, MCF-7; format: cell-based; conditions: read-out: Inhibitory effect on tumor cell proliferation IC50
[5] = Table 5, i.p., dosage 1 mg/kg/d for 5 days, control 20

CC(C)[C@]12O[C@H]1[C@@H]1O[C@]13[C@]1(O[C@H]1C[C@@]1(O)C4=C(CC[C@]31C)C(=O)OC4)[C@@H]2O [LLDT-8, (5R)-5-hydroxytriptolide]
IC50 [1]: 85 nM
Body weight after i.p. [2, 5]: 21/21 g
Body weight before i.p. [2, 5]: 21/21 g
Right ear ([2]; Table 5, i.p., dosage 1 mg/kg/d for 5 days, control 31.2): 35.5 mg
Ear swelling ([2]; Table 5, i.p., dosage 1 mg/kg/d for 5 days, control 32.6): 21.4 mg
Left ear ([2]; Table 5, i.p., dosage 1 mg/kg/d for 5 days, control 63.8): 56.9 mg
Spleen ([2]; Table 5, i.p., dosage 1 mg/kg/d for 5 days, control 142.4): 140.3 mg
Right ear ([2]; Table 6, i.p. once a day for 2 days, ICR mice, dosage 0.04 mg/kg, control 30.0): 29.4 mg
Ear swelling ([2]; Table 6, i.p. once a day for 2 days, ICR mice, dosage 0.04 mg/kg, control 31.1): 26.1 mg
Left ear ([2]; Table 6, i.p. once a day for 2 days, ICR mice, dosage 0.04 mg/kg, control 61.1): 55.5 mg
Right ear ([2]; Table 6, i.p. once a day for 2 days, ICR mice, dosage 0.2 mg/kg, control 30.0): 37.4 mg
Ear swelling ([2]; Table 6, i.p. once a day for 2 days, ICR mice, dosage 0.2 mg/kg, control 31.1): 17.9 mg
Left ear ([2]; Table 6, i.p. once a day for 2 days, ICR mice, dosage 0.2 mg/kg, control 61.1): 55.3 mg
Right ear ([2]; Table 6, i.p. once a day for 2 days, ICR mice, dosage 1 mg/kg, control 30.0): 33.0 mg
Ear swelling ([2]; Table 6, i.p. once a day for 2 days, ICR mice, dosage 1 mg/kg, control 31.1): 23.4 mg
Left ear ([2]; Table 6, i.p. once a day for 2 days, ICR mice, dosage 1 mg/kg, control 61.1): 56.4 mg
Ear swelling X ± SD ([2]; Table 7, i.p. at low dosages, Balb/c mice, dosage 2 (mg/kg), control 23.3 ± 4.3): 16.8 ± 5.4 mg
Right ear ([2]; Table 7, i.p. at low dosages, Balb/c mice, dosage 2 (mg/kg), control 26.3): 27.5 mg
Left ear ([2]; Table 7, i.p. at low dosages, Balb/c mice, dosage 2 (mg/kg), control 49.6): 44.3 mg
Ear swelling X ± SD ([2]; Table 7, i.p. at low dosages, Balb/c mice, dosage 8 (mg/kg), control 23.3 ± 4.3): 16.6 ± 4.1 mg
Right ear ([2]; Table 7, i.p. at low dosages, Balb/c mice, dosage 8 (mg/kg), control 26.3): 29.7 mg
Left ear ([2]; Table 7, i.p. at low dosages, Balb/c mice, dosage 8 (mg/kg), control 49.6): 46.3 mg
Ear swelling X ± SD ([2]; Table 7, i.p. at low dosages, Balb/c mice, dosage 40 (mg/kg), control 23.3 ± 4.3): 16.9 ± 2.7 mg
Right ear ([2]; Table 7, i.p. at low dosages, Balb/c mice, dosage 40 (mg/kg), control 26.3): 25.7 mg
Left ear ([2]; Table 7, i.p. at low dosages, Balb/c mice, dosage 40 (mg/kg), control 49.6): 42.6 mg
Ear swelling X ± SD ([2]; Table 7, i.p. at low dosages, Balb/c mice, dosage 200 (mg/kg), control 23.3 ± 4.3): 17.1 ± 5.1 mg
Right ear ([2]; Table 7, i.p. at low dosages, Balb/c mice, dosage 200 (mg/kg), control 26.3): 27.2 mg
Left ear ([2]; Table 7, i.p. at low dosages, Balb/c mice, dosage 200 (mg/kg), control 49.6): 44.3 mg
Body weight after i.p. ([2]; Table 8, i.p., Balb/c mice, dosage 0.4 (mg/kg), control 21.9): 22.6 g
Body weight before i.p. ([2]; Table 8, i.p., Balb/c mice, dosage 0.4 (mg/kg), control 22.4): 22.3 g
Ear swelling X ± SD ([2]; Table 8, i.p., Balb/c mice, dosage 0.4 (mg/kg), control 22.7 ± 2.1): 17.7 ± 4.7 mg
Right ear ([2]; Table 8, i.p., Balb/c mice, dosage 0.4 (mg/kg), control 26.4): 29.2 mg
Left ear ([2]; Table 8, i.p., Balb/c mice, dosage 0.4 (mg/kg), control 49.1): 47.0 mg
Spleen ([2]; Table 8, i.p., Balb/c mice, dosage 0.4 (mg/kg), control 154.0): 164.2 mg
Body weight after i.p. ([2]; Table 8, i.p., Balb/c mice, dosage 4 (mg/kg), control 21.9): 21.8 g
Body weight before i.p. ([2]; Table 8, i.p., Balb/c mice, dosage 4 (mg/kg), control 22.4): 21.4 g
Ear swelling X ± SD ([2]; Table 8, i.p., Balb/c mice, dosage 4 (mg/kg), control 22.7 ± 2.1): 15.3 ± 4.7 mg
Right ear ([2]; Table 8, i.p., Balb/c mice, dosage 4 (mg/kg), control 26.4): 26.8 mg
Left ear ([2]; Table 8, i.p., Balb/c mice, dosage 4 (mg/kg), control 49.1): 42.1 mg
Spleen ([2]; Table 8, i.p., Balb/c mice, dosage 4 (mg/kg), control 154.0): 163.3 mg
Body weight after i.p. ([2]; Table 8, i.p., Balb/c mice, dosage 40 (mg/kg), control 21.9): 21.4 g
Body weight before i.p. ([2]; Table 8, i.p., Balb/c mice, dosage 40 (mg/kg), control 22.4): 21.6 g
Ear swelling X ± SD ([2]; Table 8, i.p., Balb/c mice, dosage 40 (mg/kg), control 22.7 ± 2.1): 17.1 ± 4.9 mg
Right ear ([2]; Table 8, i.p., Balb/c mice, dosage 40 (mg/kg), control 26.4): 29.6 mg
Left ear ([2]; Table 8, i.p., Balb/c mice, dosage 40 (mg/kg), control 49.1): 46.7 mg
Spleen ([2]; Table 8, i.p., Balb/c mice, dosage 40 (mg/kg), control 154.0): 168.5 mg
Body weight after (i.p.) ([2]; Table 9, p.o., Balb/c mice, dosage 1 mg/kg/d for 2 days, control 19): 21/21 g
Body weight before (i.p.) ([2]; Table 9, p.o., Balb/c mice, dosage 1 mg/kg/d for 2 days, control 20): 21/21 g
Ear swelling ([2]; Table 9, p.o., Balb/c mice, dosage 1 mg/kg/d for 2 days, control 23.4): 13.1 mg
Right ear ([2]; Table 9, p.o., Balb/c mice, dosage 1 mg/kg/d for 2 days, control 25.9): 27.3 mg
Left ear ([2]; Table 9, p.o., Balb/c mice, dosage 1 mg/kg/d for 2 days, control 49.3): 40.4 mg
Spleen ([2]; Table 9, p.o., Balb/c mice, dosage 1 mg/kg/d for 2 days, control 125.8): 124.4 mg
Right ear ([2]; Table 10, p.o., ICR mice, dosage 0.04 mg/kg, control 33.7): 35.2 mg
Ear swelling ([2]; Table 10, p.o., ICR mice, dosage 0.04 mg/kg, control 41.5): 33.8 mg
Left ear ([2]; Table 10, p.o., ICR mice, dosage 0.04 mg/kg, control 75.2): 69.0 mg
Right ear ([2]; Table 10, p.o., ICR mice, dosage 0.2 mg/kg, control 33.7): 38.2 mg
Ear swelling ([2]; Table 10, p.o., ICR mice, dosage 0.2 mg/kg, control 41.5): 30.0 mg
Left ear ([2]; Table 10, p.o., ICR mice, dosage 0.2 mg/kg, control 75.2): 68.2 mg
Right ear ([2]; Table 10, p.o., ICR mice, dosage 1 mg/kg, control 33.7): 39.4 mg
Ear swelling ([2]; Table 10, p.o., ICR mice, dosage 1 mg/kg, control 41.5): 24.1 mg
Left ear ([2]; Table 10, p.o., ICR mice, dosage 1 mg/kg, control 75.2): 63.5 mg
ED50 (MLR response) ([3]; C57BL/6 against Balb/c): 0.0006 µg/mL (≈ 1.59 nM)
EC50 ([3]; C57BL/6 against Balb/c, read-out: ED50 (MLR response)): 1.6 nM
potency higher than CsA (MLR) ([3]; compared with CsA): about 2.5 fold
IC50 (concentration required to reduce the viability of cells by 50%) (lymphocyte): 0.0782 µg/mL
IC50 (lymphocyte; read-out: IC50 (concentration required to reduce the viability of cells by 50%)): 208 nM and 200 nM
IC50 [4]: 350 nM
